Assay results taken from ChEMBL document CHEMBL1201862, “PubChem BioAssay data set” (2004).
Activity calls are given as the source filed them.

Columns and labels:
Bcl-2-related protein A1 = biological target: T1, Bcl-2-related protein A1 (Mus musculus, UniProt Q07440); assay: Bfl-1 inhibitors, primary screen, biochemical, fluorescence polarization, FITC-Bid, mouse (AID 432)
T1 sequence (Q07440 whole entry): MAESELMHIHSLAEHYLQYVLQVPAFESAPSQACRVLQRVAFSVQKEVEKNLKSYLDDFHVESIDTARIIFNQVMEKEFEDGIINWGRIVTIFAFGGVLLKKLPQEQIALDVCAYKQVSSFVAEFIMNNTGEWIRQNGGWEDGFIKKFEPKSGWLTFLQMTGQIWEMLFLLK

[1] = biological target: DNA dC->dU-editing enzyme APOBEC-3G (Homo sapiens, UniProt Q9HC16); type: functional;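 note: Dose-response counterscreen measuring inhibition of APOBEC3G DNA deaminase activity, run while confirming APOBEC3A inhibitors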
[2] = biological target: T2, Tyrosine-protein phosphatase non-receptor type 7 (Homo sapiens, UniProt P35236); assay: inhibitors of human HePTP phosphatase, […], biochemical, absorbance, leukemia target (AID 521); type: functional
T2 sequence (P35236 whole entry): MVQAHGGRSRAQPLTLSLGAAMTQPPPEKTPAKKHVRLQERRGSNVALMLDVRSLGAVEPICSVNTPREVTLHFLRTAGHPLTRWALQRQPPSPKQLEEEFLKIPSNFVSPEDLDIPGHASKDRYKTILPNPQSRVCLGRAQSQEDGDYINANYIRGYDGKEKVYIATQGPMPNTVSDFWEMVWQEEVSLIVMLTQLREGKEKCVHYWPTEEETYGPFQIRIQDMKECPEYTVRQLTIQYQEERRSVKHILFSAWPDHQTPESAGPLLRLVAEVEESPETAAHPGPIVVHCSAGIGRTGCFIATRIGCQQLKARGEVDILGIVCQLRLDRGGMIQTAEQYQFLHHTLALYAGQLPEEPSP

[3] = biological target: T3, Dual specificity protein phosphatase 6 (Rattus norvegicus, UniProt Q64346); assay: MKP-3 phosphatase inhibitors, primary screen, biochemical, rat enzyme, in vitro (AID 425)
T3 sequence (Q64346 whole entry): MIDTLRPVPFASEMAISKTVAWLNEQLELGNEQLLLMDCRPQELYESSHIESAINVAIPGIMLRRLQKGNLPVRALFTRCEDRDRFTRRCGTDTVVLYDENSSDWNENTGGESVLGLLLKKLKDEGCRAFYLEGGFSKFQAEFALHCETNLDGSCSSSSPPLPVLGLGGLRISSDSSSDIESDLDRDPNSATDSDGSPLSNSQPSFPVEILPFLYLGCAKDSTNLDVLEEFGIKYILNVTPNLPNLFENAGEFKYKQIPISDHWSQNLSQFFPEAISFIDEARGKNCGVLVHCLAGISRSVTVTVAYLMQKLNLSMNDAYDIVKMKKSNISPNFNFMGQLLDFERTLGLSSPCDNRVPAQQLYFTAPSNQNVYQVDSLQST

Bcl-2-like protein 10 = biological target: T4, Bcl-2-like protein 10 (Homo sapiens, UniProt Q9HD36); assay: displacers of TR3 peptide from Bcl-B, primary screen, selectivity assay for Bfl-1 inhibitor project, biochemical, fluorescence polarization, FITC-TR3 peptide (AID 748);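 note: fluorescence polarization from a fluorescein-labelled TR3 peptide binding purified Bcl-B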
T4 sequence (Q9HD36 whole entry): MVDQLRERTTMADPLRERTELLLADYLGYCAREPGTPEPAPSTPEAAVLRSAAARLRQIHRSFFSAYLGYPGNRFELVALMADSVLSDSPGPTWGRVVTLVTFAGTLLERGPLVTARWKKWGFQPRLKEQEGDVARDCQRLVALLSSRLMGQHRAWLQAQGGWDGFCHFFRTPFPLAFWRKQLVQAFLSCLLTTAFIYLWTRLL

[4] = biological target: DNA dC->dU-editing enzyme APOBEC-3A (Homo sapiens, UniProt P31941); assay: Dose Response confirmation of small molecule APOBEC3A DNA Deaminase Inhibitors via a fluorescence-based single-stranded DNA deaminase assay. [Related pubchem assays (depositor defined):AID493011, AID493024]; type: functional
DNA dC->dU-editing enzyme APOBEC-3A, sequence (P31941 whole entry): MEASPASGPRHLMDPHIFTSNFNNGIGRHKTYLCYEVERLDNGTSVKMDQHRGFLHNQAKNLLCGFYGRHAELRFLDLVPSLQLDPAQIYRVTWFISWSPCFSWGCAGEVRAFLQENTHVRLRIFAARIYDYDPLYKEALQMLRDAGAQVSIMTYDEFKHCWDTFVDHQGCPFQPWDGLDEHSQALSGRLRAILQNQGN

Large T antigen = Large T antigen (Simian virus 40, UniProt P03070); type: functional, Betapolyomavirus macacae;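 note: Confirmatory-stage PubChem screen for compounds that inhibit SV40 T antigen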
Large T antigen, sequence (P03070 whole entry): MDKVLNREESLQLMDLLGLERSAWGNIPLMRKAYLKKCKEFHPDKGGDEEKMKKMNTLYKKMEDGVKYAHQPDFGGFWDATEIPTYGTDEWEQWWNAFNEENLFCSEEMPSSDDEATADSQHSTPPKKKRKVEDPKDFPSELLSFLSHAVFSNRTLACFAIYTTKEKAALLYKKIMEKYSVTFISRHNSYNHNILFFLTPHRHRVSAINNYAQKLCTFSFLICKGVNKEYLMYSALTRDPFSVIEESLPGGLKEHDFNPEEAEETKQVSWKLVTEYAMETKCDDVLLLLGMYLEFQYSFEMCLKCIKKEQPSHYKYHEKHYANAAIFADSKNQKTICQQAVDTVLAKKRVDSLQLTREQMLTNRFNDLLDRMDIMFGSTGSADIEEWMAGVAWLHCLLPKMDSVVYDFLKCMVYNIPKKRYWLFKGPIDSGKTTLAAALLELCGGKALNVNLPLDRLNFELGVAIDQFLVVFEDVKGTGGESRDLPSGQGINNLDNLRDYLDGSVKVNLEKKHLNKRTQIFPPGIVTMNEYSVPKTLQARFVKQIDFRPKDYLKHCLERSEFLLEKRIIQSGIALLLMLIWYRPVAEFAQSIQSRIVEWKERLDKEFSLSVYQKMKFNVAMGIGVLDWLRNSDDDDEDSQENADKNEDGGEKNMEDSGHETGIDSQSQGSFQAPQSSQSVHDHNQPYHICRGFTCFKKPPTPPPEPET

Protein Tat = Protein Tat (Human immunodeficiency virus type 1 group M subtype B (isolate HXB2)(HIV-1), UniProt P04608); type: functional;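 note: tat binding to TAR RNA read out by fluorescence polarization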
Protein Tat, sequence (P04608 whole entry): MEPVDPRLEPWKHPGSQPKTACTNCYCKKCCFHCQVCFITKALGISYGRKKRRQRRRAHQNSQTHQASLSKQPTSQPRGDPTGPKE

Vero = assay: host cell cytotoxicity of antiviral hits, dose response, cytotoxicity control for West Nile virus antiviral project, secondary assay (AID 1650); type: functional; conditions: Chlorocebus sabaeus
[5] = inhibitors of SNCA 5'UTR-driven reporter translation, confirmation, H4 neuroglioma cells, luminescence (AID 1988); type: functional, cell-based
[6] = Luminescence Cell-Based Dose Response HTS to Identify Inhibitors of 5'UTR Stem-Loop Driven Prion Protein mRNA Translation in H4 Neuroglioblastoma Cells. [Related pubchem assays: 1827 (Project Summary), 1813 (Primary HTS)]; type: functional
[7] = inhibitors of firefly luciferase expression or activity, dose response, H4 neuroglioma cells, luminescence (AID 1990); type: functional, cell-based
[8] = Vero E6 cell cytotoxicity, dose response, cytotoxicity control for non-replicating M. tuberculosis project, secondary assay (AID 492998); type: functional, VeroE6; conditions: Vero C1008
cells = type: functional
[9] = HEp-2 cell cytotoxicity, dose response, cytotoxicity control for RSV inhibitor project, HTS (AID 2410); type: functional; conditions: human respiratory syncytial virus
[10] = THP-1 cell cytotoxicity, dose response, cytotoxicity control for non-replicating M. tuberculosis project (AID 489025); type: functional
[11] = A Cell Based Secondary Assay To Explore Cytotoxicity of Compounds that Sensitize Mycobacterium Tuberculosis to Beta-Lactam Antibiotics.; type: functional
[12] = cytotoxicity toward NIH3T3 fibroblasts, dose response, counter-screen, cell-based, ATP luminescence, mouse fibroblasts (AID 2010); type: functional;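 note: cells exposed to compound for about 90 hours before reading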
[13] = inhibitors of intracellular T. cruzi replication, confirmation, NIH3T3 host cells, beta-gal luminescence (AID 2044); type: functional, cell-based;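 note: intracellular parasites grown in NIH/3T3 mouse fibroblasts as host cells; luminescent beta-galactosidase reporter signal from transgenic T. cruzi replicating inside host cells; inhibitors lower the luminescence signal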
[14] = Vero cell cytotoxicity, dose response, cytotoxicity control for Vif-APOBEC3G degradation inhibitor project, Vero cells (AID 1117358); type: functional; conditions: Human immunodeficiency virus 1, Vero
Cytochrome P450 3A4 = Cytochrome P450 3A4 (Homo sapiens, UniProt P08684);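 note: CYP3A4 tested as one member of a cytochrome P450 panel screen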
HEK293 [15] = assay: cells; conditions: Homo sapiens
[16] = biological target: Photoreceptor-specific nuclear receptor (Homo sapiens, UniProt Q9Y5X4); assay: NR2E3 inverse agonists, dose response, biochemical, TR-FRET (AID 463256); type: functional
Cytochrome P450 2C9 = Cytochrome P450 2C9 (Homo sapiens, UniProt P11712)
Cytochrome P450 2C9, sequence (P11712 whole entry): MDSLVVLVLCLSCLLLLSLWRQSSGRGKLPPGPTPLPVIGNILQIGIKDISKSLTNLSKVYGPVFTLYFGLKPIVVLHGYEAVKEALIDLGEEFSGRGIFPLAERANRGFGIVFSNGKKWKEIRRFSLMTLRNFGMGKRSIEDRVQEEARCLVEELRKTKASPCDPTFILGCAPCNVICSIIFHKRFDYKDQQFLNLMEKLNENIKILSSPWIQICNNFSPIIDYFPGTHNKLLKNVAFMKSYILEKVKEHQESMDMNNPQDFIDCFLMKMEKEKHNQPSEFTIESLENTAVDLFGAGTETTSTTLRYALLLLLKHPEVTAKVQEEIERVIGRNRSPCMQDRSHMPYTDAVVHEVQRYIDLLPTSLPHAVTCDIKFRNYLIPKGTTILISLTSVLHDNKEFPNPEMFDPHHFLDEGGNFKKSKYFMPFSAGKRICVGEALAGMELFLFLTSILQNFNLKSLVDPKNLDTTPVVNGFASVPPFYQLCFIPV

HEK293 [17] = assay: cells; conditions: Homo sapiens; remark: listed apart in the source
Cytochrome P450 2C19 = Cytochrome P450 2C19 (Homo sapiens, UniProt P33261); assay: Cytochrome panel assay with activity outcomes. Panel member name: p450-cyp2c19 Compounds with AC50 equal or less than 10 uM are considered active; type: functional; conditions: read-out: AC50
Cytochrome P450 2C19, sequence (P33261 whole entry): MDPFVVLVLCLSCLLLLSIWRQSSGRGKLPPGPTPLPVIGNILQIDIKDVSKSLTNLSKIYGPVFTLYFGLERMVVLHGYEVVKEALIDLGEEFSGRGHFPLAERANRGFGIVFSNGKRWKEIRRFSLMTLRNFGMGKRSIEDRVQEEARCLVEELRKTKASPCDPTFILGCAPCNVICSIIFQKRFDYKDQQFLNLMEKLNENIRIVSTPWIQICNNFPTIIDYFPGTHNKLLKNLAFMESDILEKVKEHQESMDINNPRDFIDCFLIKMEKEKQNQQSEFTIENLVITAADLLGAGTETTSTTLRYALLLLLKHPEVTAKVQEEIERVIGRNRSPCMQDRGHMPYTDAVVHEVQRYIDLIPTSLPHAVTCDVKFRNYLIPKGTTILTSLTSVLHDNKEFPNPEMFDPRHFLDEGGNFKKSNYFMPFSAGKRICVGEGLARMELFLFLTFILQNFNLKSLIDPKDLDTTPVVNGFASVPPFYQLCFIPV

[18] = biological target: Peroxisome proliferator-activated receptor gamma/Nuclear receptor corepressor 2 (Homo sapiens, UniProt P37231+Q9Y618); assay: Counterscreen for NR2E3 inverse agonists: TR-FRET-based biochemical high throughput dose response assay to identify inverse agonists of the interaction between peroxisome proliferator-activated receptor gamma (PPARg) and nuclear receptor co-repressor 2 (NCOR2).; type: functional
Peroxisome proliferator-activated receptor gamma/Nuclear receptor corepressor 2, sequence (P37231 whole entry): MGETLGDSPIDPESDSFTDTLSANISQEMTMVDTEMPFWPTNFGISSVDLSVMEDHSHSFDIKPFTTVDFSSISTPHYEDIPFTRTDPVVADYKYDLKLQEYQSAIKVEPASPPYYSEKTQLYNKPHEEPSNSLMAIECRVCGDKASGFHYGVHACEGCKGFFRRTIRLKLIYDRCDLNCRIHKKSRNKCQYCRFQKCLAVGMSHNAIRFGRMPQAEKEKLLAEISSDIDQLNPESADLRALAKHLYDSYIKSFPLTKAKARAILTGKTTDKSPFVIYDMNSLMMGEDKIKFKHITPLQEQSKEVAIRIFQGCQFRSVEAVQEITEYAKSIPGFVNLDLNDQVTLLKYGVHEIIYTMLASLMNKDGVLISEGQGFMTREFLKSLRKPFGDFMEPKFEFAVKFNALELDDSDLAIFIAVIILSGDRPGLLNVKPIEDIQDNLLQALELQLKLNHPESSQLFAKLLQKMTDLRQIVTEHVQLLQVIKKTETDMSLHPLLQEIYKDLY
Peroxisome proliferator-activated receptor gamma/Nuclear receptor corepressor 2, sequence (Q9Y618 whole entry): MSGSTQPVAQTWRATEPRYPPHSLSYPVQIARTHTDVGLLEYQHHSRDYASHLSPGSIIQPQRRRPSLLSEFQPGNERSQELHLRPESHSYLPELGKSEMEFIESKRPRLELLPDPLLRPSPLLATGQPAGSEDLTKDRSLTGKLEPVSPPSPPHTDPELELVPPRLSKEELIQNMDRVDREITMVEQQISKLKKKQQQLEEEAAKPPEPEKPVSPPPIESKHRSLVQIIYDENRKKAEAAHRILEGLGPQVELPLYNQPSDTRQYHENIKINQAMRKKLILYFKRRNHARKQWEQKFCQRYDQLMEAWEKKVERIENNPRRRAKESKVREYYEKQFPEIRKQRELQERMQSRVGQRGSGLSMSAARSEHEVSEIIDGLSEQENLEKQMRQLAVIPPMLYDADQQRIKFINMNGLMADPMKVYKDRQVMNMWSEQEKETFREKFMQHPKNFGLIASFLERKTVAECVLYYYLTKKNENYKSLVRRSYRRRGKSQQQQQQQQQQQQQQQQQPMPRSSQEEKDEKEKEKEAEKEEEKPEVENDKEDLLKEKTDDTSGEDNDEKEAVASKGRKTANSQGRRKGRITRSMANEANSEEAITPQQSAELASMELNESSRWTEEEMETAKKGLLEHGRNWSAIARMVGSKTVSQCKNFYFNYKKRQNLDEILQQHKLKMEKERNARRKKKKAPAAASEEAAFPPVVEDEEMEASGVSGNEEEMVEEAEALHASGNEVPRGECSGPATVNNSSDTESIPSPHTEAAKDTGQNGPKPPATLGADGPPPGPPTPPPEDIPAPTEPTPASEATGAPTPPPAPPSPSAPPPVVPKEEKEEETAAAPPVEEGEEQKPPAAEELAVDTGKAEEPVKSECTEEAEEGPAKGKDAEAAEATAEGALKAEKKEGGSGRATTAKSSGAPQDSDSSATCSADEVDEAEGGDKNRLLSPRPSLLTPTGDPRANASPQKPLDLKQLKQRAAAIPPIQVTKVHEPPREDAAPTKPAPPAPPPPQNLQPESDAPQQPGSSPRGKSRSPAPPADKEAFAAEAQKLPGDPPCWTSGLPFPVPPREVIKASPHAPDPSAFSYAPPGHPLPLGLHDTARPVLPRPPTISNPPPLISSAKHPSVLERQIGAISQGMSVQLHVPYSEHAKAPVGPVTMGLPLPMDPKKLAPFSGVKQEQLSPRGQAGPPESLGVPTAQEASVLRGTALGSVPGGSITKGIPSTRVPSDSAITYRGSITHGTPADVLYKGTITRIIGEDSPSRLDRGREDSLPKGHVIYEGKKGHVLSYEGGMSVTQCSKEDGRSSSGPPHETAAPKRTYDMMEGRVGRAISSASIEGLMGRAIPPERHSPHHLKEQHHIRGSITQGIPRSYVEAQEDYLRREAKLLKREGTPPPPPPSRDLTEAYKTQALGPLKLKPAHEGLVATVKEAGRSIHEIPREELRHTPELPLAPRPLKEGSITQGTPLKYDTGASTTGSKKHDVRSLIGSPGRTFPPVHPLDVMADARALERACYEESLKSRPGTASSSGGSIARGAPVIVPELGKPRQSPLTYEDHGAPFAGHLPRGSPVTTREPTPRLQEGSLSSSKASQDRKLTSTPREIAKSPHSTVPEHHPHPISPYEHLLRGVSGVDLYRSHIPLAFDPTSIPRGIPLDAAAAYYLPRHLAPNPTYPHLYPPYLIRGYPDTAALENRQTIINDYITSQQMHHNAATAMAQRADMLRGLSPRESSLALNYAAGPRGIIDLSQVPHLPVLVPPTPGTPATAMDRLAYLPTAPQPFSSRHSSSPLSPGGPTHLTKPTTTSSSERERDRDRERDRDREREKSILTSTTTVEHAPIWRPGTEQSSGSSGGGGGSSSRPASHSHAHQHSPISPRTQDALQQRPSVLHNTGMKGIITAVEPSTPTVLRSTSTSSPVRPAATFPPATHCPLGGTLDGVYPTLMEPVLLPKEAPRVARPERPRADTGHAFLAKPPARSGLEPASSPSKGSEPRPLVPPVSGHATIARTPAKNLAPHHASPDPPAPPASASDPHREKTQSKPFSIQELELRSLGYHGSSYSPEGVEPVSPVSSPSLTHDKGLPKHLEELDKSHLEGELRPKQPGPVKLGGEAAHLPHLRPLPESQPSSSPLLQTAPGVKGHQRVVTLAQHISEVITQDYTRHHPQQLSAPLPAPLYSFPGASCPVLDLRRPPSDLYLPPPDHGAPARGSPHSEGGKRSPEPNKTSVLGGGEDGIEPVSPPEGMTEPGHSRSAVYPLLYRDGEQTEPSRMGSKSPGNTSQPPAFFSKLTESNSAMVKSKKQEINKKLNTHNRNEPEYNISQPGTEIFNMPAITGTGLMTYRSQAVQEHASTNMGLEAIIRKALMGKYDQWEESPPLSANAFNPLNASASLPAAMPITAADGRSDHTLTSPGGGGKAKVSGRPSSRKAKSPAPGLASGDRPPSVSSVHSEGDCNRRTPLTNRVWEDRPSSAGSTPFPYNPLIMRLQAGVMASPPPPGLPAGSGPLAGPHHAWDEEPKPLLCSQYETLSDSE

Ephrin type-A receptor 4 = Ephrin type-A receptor 4 (Mus musculus, UniProt Q03137); assay: inhibitors of EphA4 binding to KYL peptide, primary screen, biochemical, colorimetric, mouse EphA4 (AID 689); type: functional
[19] = biological target: Voltage-dependent T-type calcium channel subunit alpha-1H (Homo sapiens, UniProt O95180); type: functional;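 note: channel activity triggered by adding a high calcium stimulation buffer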
[20] = biological target: T5, Zinc finger protein mex-5 (Caenorhabditis elegans, UniProt Q9XUB2); assay: MEX-5/TCR-2 RNA interaction inhibitors, dose response, biochemical, C. elegans, fluorescence polarization (AID 1960)
T5 sequence (Q9XUB2 whole entry): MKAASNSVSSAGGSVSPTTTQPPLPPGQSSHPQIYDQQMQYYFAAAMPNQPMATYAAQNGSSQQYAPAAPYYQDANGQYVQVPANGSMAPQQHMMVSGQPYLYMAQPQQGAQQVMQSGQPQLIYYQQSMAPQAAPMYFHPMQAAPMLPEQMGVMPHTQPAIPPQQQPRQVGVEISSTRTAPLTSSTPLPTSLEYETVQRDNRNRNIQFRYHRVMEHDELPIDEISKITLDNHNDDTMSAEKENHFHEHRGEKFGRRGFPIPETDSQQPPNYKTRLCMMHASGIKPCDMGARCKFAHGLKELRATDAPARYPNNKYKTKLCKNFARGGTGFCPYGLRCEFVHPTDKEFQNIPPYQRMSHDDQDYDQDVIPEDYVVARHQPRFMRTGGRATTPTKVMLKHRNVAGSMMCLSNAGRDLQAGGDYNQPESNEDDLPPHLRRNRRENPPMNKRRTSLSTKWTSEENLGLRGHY

[21] = biological target: T6, RNA-binding protein pos-1 (Caenorhabditis elegans, UniProt G5EF15); assay: inhibitors of POS-1/mex-3 RNA binding, dose response, biochemical, fluorescence polarization (AID 1964);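 note: purified POS-1 fused to maltose binding protein made in E. coli; potency of compounds blocking POS-1 binding to fluorescent RNA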
T6 sequence (G5EF15 whole entry): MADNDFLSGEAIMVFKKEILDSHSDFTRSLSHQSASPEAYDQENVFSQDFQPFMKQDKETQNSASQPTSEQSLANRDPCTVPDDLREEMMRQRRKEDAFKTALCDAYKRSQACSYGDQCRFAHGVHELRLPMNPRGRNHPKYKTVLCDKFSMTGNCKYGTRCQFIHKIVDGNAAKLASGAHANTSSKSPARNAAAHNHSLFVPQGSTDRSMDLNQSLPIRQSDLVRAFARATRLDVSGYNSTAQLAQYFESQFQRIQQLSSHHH

Compound: CCn1c(SCC(=O)O)nc2sc3c(c2c1=O)CCC3
- IC50 (Bcl-2-related protein A1): 14.5 µM (active)
- IC50 [1]: 40.8 µM (active)
- IC50 [2]: 1.29 µM (active)
- IC50 [3]: > 10 µM (not active)
- IC50 (Bcl-2-like protein 10): 8.5 µM (active)
- IC50 [4]: 17.5 µM (active)

Compound: O=C(CN1CCN(S(=O)(=O)c2ccc(F)cc2)CC1)c1ccc(O)c(O)c1
- IC50 (Large T antigen): 6.55 µM (active)
- IC50 (Protein Tat): > 100 µM (active)

Compound: O=C(Nc1ccc(O)c2c(=O)cc(-c3cccc(Cl)c3)oc12)c1cccc(Cl)c1
- CC50 (Vero): 0.83 µM (active)
- EC50 [5]: 10.2 µM (active)
- EC50 [6]: > 120 µM (not active)
- EC50 [7]: > 120 µM (not active)

Compound: NCCOc1ccc(C23CC4CC(CC(C4)C2)C3)cc1
- CC50 (Vero): 10.7 µM (active)
- CC50 [8]: > 20 µM (active)
- IC50 (cells): 23.4 µM (active)
- CC50 [9]: 13.1 µM (active)
- CC50 [10]: 11.4 µM (active)

Compound: CCC1Nc2ncnc(N3CCN(c4ccccc4)CC3)c2N(Cc2ccc(Br)cc2)C1=O (configuration not stated)
- CC50 [11]: > 40 µM (active)
- EC50 [12]: > 60 µM (not active)
- EC50 [13]: 1.59 µM (active)

Compound: N#Cc1nc(Cc2cccc3ccccc23)oc1NCc1ccc(F)cc1
- CC50 [14]: > 40 µM (active)

Compound: CCOc1ccc(C(=O)Nc2ccc(NC(=O)c3ccco3)c(Cl)c2)cc1Br
- AC50 (Cytochrome P450 3A4): 22.4 µM (inconclusive)
- EC50 (HEK293 [15]): > 59.7 µM (inactive)
- IC50 [16]: > 39.8 µM (not active)
- AC50 (Cytochrome P450 2C9): 0.562 µM (inconclusive)
- EC50 (HEK293 [17]): > 59.7 µM (inactive)
- AC50 (Cytochrome P450 2C19): 0.398 µM (inconclusive)
- IC50 [18]: > 39.8 µM (not active)

Compound: Cc1ccc2cc(/C=C3\N=C(c4ccccc4)OC3=O)c(N3CCOCC3)nc2c1
- IC50 (Ephrin type-A receptor 4): 1.54 µM (active)
- EC50 [19]: 10.8 µM (active)
- EC50 [20]: > 300 µM (inconclusive)
- EC50 [21]: > 300 µM (not active)
